Experimental data from patent publication US10865216B2, “Tricyclic Gyrase inhibitors” (MERCK SHARP & DOHME CORP., priority 2012, dated 2020).
≈ marks a conversion by molar mass, not a printed value.

Key:
S. aureus ATCC 13709 = experiment: MIC, S. aureus ATCC 13709; assay type: cell-based; conditions: Alamar Blue read after overnight incubation at 35° C.; for MIC Sa: S. aureus; for MIC: Staphylococcus aureus, ATCC13709, S. aureus, read-out: MIC Sa
E. coli ATCC 25922 = experiment: MIC, E. coli ATCC 25922; assay type: cell-based; conditions: Alamar Blue read after overnight incubation at 35° C.; for MIC Ec: E. coli; for MIC: Escherichia coli, ATCC25922, E. coli, read-out: MIC Ec

Row | SMILES | MIC Sa (S. aureus ATCC 13709) [µg/mL] | MIC Ec (E. coli ATCC 25922) [µg/mL] | MIC (S. aureus ATCC 13709) [µg/mL] | MIC (E. coli ATCC 25922) [µg/mL]
1 | Cc1ncc(Oc2nc(N3CC(N)C4(CC4)C3)c3c(n2)[nH]c2c(N)cc(F)cc23)cn1 (centres unmarked) [Compound 2.9] | 16 (≈ 38.1 µM) | 16 (≈ 38.1 µM) |  | 
2 | COc1cccc2c1[nH]c1nc(Oc3cncnc3)nc(N3CC[C@@H](N)C3)c12 [Compound 2.10] | 2 (≈ 5.3 µM) | 32 (≈ 84.8 µM) |  | 
3 | COc1cccc2c1[nH]c1nc(Oc3cncnc3)nc(N3CCC(NC(C)=O)C3)c12 (centres unmarked) [Compound 2.11] | 4 (≈ 9.54 µM) | >64 |  | 
4 | COc1cccc2c1[nH]c1nc(Oc3cccc(C#N)c3)nc(N3CC4C(N)C4C3)c12 (centres unmarked) [Compound 2.12] | 16 (≈ 38.8 µM) | >64 |  | 
5 | COc1cccc2c1[nH]c1nc(Oc3cncnc3)nc(N3CC4C(N)C4C3)c12 (centres unmarked) [Compound 2.13] | 2 (≈ 5.14 µM) | 64 (≈ 164 µM) |  | 
6 | COc1cccc2c1[nH]c1nc(Oc3cnc4cccnc4c3)nc(N3CC4C(N)C4C3)c12 (centres unmarked) [Compound 2.14] | 1 (≈ 2.28 µM) | >64 |  | 
7 | COc1cccc2c1[nH]c1nc(Oc3cccc(C#N)c3)nc(N3CC4C(N)C4C3)c12 (centres unmarked) [Compound 2.15] | 1 (≈ 2.42 µM) | >32 |  | 
8 | Cc1ncc(Oc2nc(N3CC4CC3C[C@H]4N)c3c(n2)[nH]c2c(N)cc(F)cc23)cn1 (some centres unmarked) [Compound 2.16] |  |  | 8 (≈ 19 µM) | 16 (≈ 38.1 µM)
9 | CNc1cccc2c1[nH]c1nc(Oc3cncnc3)cc(N3CC4CC4(N)C3)c12 (centres unmarked) [Compound 3.1] |  |  | 1 (≈ 2.58 µM) | 4 (≈ 10.3 µM)
10 | CNc1cccc2c1[nH]c1nc(Oc3cncnc3)cc(N3CC[C@@H](N)C3)c12 [Compound 3.4] |  |  | 0.5 (≈ 1.33 µM) | ≤ 0.5
11 | CNc1cccc2c1[nH]c1nc(Oc3cnc(C)nc3)cc(N3CC[C@@H](N)C3)c12 [Compound 3.5] |  |  | 0.25 (≈ 0.642 µM) | ≤ 0.5
12 | CNc1cccc2c1[nH]c1nc(Oc3cncnc3)cc(-c3cn[nH]c3)c12 [Compound 3.9] |  |  | 2 (≈ 5.6 µM) | 32 (≈ 89.5 µM)
13 | CNc1cccc2c1[nH]c1nc(Oc3cnc(C)nc3)cc(N3CC[C@@H](NCCC#N)C3)c12 [Compound 3.10] |  |  | 32 (≈ 72.3 µM) | > 64
14 | CNc1cccc2c1[nH]c1nc(Oc3cnc(C)nc3)cc(N3CC4C(C3)C4NCCC#N)c12 (centres unmarked) [Compound 3.11] |  |  | ≤ 0.5 | 2 (≈ 4.4 µM)
15 | CNc1cccc2c1[nH]c1nc(Oc3cncnc3)cc(N3C[C@H](NCC4CC4)C4(CC4)C3)c12 [Compound 3.12] |  |  | 1 (≈ 2.2 µM) | 8 (≈ 17.6 µM)
16 | CNc1cccc2c1[nH]c1nc(Oc3cncnc3)cc(N3CC4C(C3)C4NCC3CC3)c12 (centres unmarked) [Compound 3.13] |  |  | ≤ 0.5 | 1 (≈ 2.26 µM)
17 | CNc1cccc2c1[nH]c1nc(Oc3cnc(C)nc3)cc(N3CC4C(C3)C4NCC3CC3)c12 (centres unmarked) [Compound 3.14] |  |  | ≤ 0.5 | 2 (≈ 4.39 µM)
18 | CNc1cccc2c1[nH]c1nc(Oc3cncnc3)cc(N3CC4CCC(N)C4C3)c12 (centres unmarked) [Compound 3.15] |  |  | 1 (≈ 2.41 µM) | 8 (≈ 19.3 µM)
19 | CNc1cccc2c1[nH]c1nc(Oc3cncnc3)cc(N3CCC[C@@H](N)C3)c12 [Compound 3.16] |  |  | 4 (≈ 10.3 µM) | 4 (≈ 10.3 µM)
20 | CNc1cccc2c1[nH]c1nc(Oc3cncnc3)cc(N3CCC(C(N)=O)C3)c12 (centres unmarked) [Compound 3.17] |  |  | 2 (≈ 4.96 µM) | > 16
21 | CNc1cccc2c1[nH]c1nc(Oc3cnc(N4CCOCC4)nc3)cc(N3CC4C(N)C4C3)c12 (centres unmarked) [Compound 3.26] |  |  | > 16 | > 16

More lines, now with the values ahead:

Row | MIC Sa (S. aureus ATCC 13709) [µg/mL] | MIC Ec (E. coli ATCC 25922) [µg/mL] | MIC (S. aureus ATCC 13709) [µg/mL] | MIC (E. coli ATCC 25922) [µg/mL] | SMILES
22 |  |  | 0.5 (≈ 1.25 µM) | 1 (≈ 2.5 µM) | CNc1cccc2c1[nH]c1nc(Oc3cncc(C#N)c3)cc(N3CC[C@@H](N)C3)c12 [Compound 3.3]
23 |  |  | 0.5 (≈ 1.27 µM) | 1 (≈ 2.55 µM) | CNc1cccc2c1[nH]c1nc(Oc3cncc(F)c3)cc(N3CC[C@@H](N)C3)c12 [Compound 3.6]
24 |  |  | 1 (≈ 2.47 µM) | 4 (≈ 9.89 µM) | CNc1cccc2c1[nH]c1nc(Oc3cncc(F)c3)cc(N3CC4CNC4C3)c12 (centres unmarked) [Compound 3.7]
25 |  |  | 16 (≈ 40.9 µM) | > 64 | CNc1cccc2c1[nH]c1nc(Oc3cncnc3)cc(N3CC(N)C(O)C3)c12 (centres unmarked) [Compound 3.8]
26 |  |  | 4 (≈ 9 µM) | > 16 | CNc1cccc2c1[nH]c1nc(Oc3cncnc3)cc(N3CC4C(C3)C4NC(=O)CN)c12 (centres unmarked) [Compound 3.18]
27 |  |  | 8 (≈ 18.6 µM) | 32 (≈ 74.5 µM) | CNc1cccc2c1[nH]c1nc(Oc3cncc(C(N)=O)c3)cc(N3CC4C(N)C4C3)c12 (centres unmarked) [Compound 3.19]
28 |  |  | > 8 | > 8 | CNc1cccc2c1[nH]c1nc(Oc3cncc(C(=O)O)c3)cc(N3CC4C(N)C4C3)c12 (centres unmarked) [Compound 3.20]
29 |  |  | ≤ 0.5 | 1 (≈ 2.25 µM) | CNc1cccc2c1[nH]c1nc(Oc3ccc(C(=O)OC)nc3)cc(N3CC4C(N)C4C3)c12 (centres unmarked) [Compound 3.21]
30 |  |  | 16 (≈ 37.2 µM) | 64 (≈ 149 µM) | CNc1cccc2c1[nH]c1nc(Oc3ccc(C(=O)O)nc3)cc(N3CC4C(N)C4C3)c12 (centres unmarked) [Compound 3.22]
31 |  |  | ≤ 0.5 | 2 (≈ 4.69 µM) | CNc1cccc2c1[nH]c1nc(Oc3cnc4ccoc4c3)cc(N3CC4C(N)C4C3)c12 (centres unmarked) [Compound 3.23]
